Data set [1] concerns marmosets (Callithrix jacchus). The data set is described as follows: Marmoset Human Threat Test (HTT). Format: in vivo. Particulars: Example J, ketamine 0.3 mg/kg i.m. An excerpt: Marmoset Human Threat Test (HTT): Marmosets were challenged by the presence of a human observer over a long period of time on a regular basis. Such chronic stimulation is known to increase plasma cortisol and the subsequent increase in hypothalamic-pituitary-adrenal function contributed to the pathophysiology of depressive illness.
Study Design: Thirty-six (36) marmosets (Callithrix jacchus) were paired and divided randomly divided into treatment groups. Twenty-four hours before the Human Threat Test (HTT) animals were treated with vehicle, ketamine (0.3 mg/kg; i.m.) or NV-5138 (160 mg/kg; p.o.). The following day, the same animals were treated with either vehicle (s.c.) or chloriazepoxide (1 mg/kg; s.c.). The animals were then monitored for the number of threat postures over a two (2) minutes period with the presence of a human observer. Locomotor activity was monitored over the same period, as measured by the number of jumps observed.

For another data set, the system named is Male Sprague Dawley rats. Kind of data set: Novelty Suppressed Feeding Test (NSFT) with home cage feeding control. As to conditions: Example I; Ket 10 mg/kg i.p. on alternate days (day 0, 2, 4, 6); day 9. The data set is classed as in vivo, rat. The protocol:
Behavioral Analysis Using the Novelty Suppressed Feeding Test (NSFT): The NSFT was conducted as previously described (Warner-Schmidt, J. L. & Duman, R. S. PNAS 104(11): 4647-52 (2007)). Rats were fasted in their home cages for 20 hr and then placed in a Plexiglas open field (76.5 cm×76.5 cm×40 cm) with a small amount of food in the center. Animals were allowed to explore the open field for 8 min and the latency to feed (s) was recorded.
Chronic Unpredictable Stress (CUS) Conditions: Rats were exposed to a variable sequence of 12 unpredictable stressors, preventing habituation as described (Li, N. et al., Biol Psychiatry 69(8): 754-61 (2011)). The following twelve stressors were applied (2 per day, for 25 days): cage rotation, light on, light off, cold stress, isolation, swim stress, food and water deprivation, wet bedding, stroboscope, cage tilt, odor exposure and group housing. The animals in non-stressed (NS) groups were housed normally without the application of external stressors. Both NS and CUS rats were handled and weighed weekly.
Study Design. Thirty-two (32) male Sprague Dawley Male rats weighing between 175 and 200 g were randomized into 4 study groups (n=8/treatment group), following a 5-day acclimation period. On study day 0, rats received a single dose of either saline (Sal) or ketamine (Ket) in Groups 1 and 2, respectively, by intraperitoneal injection (i.p.). The rats in Group 3 and 4 received a single dose of the NV-5138 vehicle (Veh, 0.5% Methylcellulose/0.1% Tween-80) or NV-5138 (160 mg/kg), respectively, by oral gavage. All rats were subjected to the FUST on day 1, 24 hrs after dosing. On day 2, 48 hrs after dosing, the LMA of all rats was measured in an open field. Rats were then fasted for 20 hrs and subjected to the NSFT, 72 hrs post-dose.
Study Design: Fifty-six (56) male rats weighing between 175 and 200 g were randomized into 4 study groups (n=14/group), following a 5-day acclimation period. On study day minus 20, two groups of rats were subjected to CUS for 25 days and two groups of rats were housed normally serving as the NS group. On the day 21 of the CUS protocol, rats received a single dose of either Veh or NV-5138 (160 mg/kg) by oral gavage (day 0). The SPT and NSFT were performed 24 and 48 hrs post-administration (days 1 and 2), respectively. Upon completion of the behavioral tests, after 25 days of the CUS protocol a second dose of NV-5138 or Veh was administered on day 5 and rats were sacrificed 24 hrs later by conscious decapitation. Crude synaptosomes were prepared from the PFC and the synaptic proteins, GluR1 and PSD95 were quantitated by WB.
Study Design. Twenty (20) male rats weighing between 175 and 200 g were randomized into 3 study groups (n=6-7/group), following a 5-day acclimation period. All rats were surgically implanted with bilateral IT cannulas in the PFC 2 weeks prior to dosing. […] Thirty minutes following the intrathecal infusions, either NV-5138 vehicle (Veh-NV, 0.5% methylcellulose/0.1% Tween-80) or NV-5138 (160 mg/kg) was administered by oral gavage. Each treatment group was assessed at the designated time following oral dosing in FST 24 hrs (day 1) LMA 48 hrs (day 2) and the NSFT 72 hrs (day 3 following a 20 hr period of fasting). LMA was measured to rule out overall changes in generally locomotor activity. The study design is presented in Table 11 with timeline of surgical procedures, test article administration and behavioral tests is provided in FIG. 20
Study Design. Forty-eight (48) male rats weighing between 175 and 200 g were randomized into 6 study groups (n=8/group), following a 5-day acclimation period. A single dose of all test articles was administered on day 0 and the behavioral tests were performed 3, 7 and 10 days later. Groups 1 and 2 were dosed on day 0 with NV-5138 (160 mg/kg by oral gavage) and Ket (10 mg/kg by i.p. injection), respectively and subjected to a FST on day 3. […]

The subject of data set [2] is point mutant form of Sestrin2 unable to bind leucine. Kind of data set: ILBA with Flag-tagged point mutant Sestrin2. Format: binding, human.
Procedure: This assay was also performed in cultured human cells over-expressing Sestrin2 N-terminally fused to a Flag tag. In this version of the assay, the procedure remained the same, but immunoblotting was performed with a mouse anti-Flag antibody (#F3165, SIGMA).
A further data set addresses T1, Sestrin2 (Homo sapiens, UniProt P58004).
T1 sequence (P58004 1-480): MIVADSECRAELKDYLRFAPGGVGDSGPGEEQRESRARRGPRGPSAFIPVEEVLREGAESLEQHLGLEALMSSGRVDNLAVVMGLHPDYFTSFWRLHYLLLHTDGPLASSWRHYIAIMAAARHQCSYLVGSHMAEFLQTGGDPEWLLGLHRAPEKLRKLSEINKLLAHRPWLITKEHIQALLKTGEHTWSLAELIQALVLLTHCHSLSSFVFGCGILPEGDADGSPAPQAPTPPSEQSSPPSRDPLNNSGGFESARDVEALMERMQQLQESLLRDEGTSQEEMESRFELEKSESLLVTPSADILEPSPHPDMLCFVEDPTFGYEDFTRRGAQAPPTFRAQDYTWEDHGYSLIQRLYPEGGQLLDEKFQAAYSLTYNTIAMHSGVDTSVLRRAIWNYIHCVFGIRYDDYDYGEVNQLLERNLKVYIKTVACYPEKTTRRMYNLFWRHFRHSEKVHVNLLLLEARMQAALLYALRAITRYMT
The data set is described as follows: Indirect ligand binding assay (ILBA, Method 7), immunoprecipitation with CST anti-Sestrin2 antibody. More on the design: endogenous in cells; host or cells: unnamed human cell line (crude lysate after 1 h amino acid starvation). As to conditions: crude lysate of amino acid-starved human cell line; 1 hour incubation. The protocol:
Conversely, compounds that destabilized Sestrin2 as measured by thermal shift assay increased the affinity of the CST antibody for non-denatured Sestrin2. […] In one version, the assay was performed with crude lysate generated from a human cell line after a 1-hour period of amino acid starvation (cells are lysed in 1% Triton, 10 mM beta-glycerol phosphate, 10 mM sodium pyrophosphate, 40 mM HEPES [pH 7.4], 150 mM NaCl and 2.5 mM MgCl2). […] After compound incubation, samples were subjected to immunoprecipitation with the CST anti-Sestrin2 antibody for 1.5 hours followed by a 30-minute incubation with protein-A sepharose as described in L. Chantranupong, et al., Cell Reports 9:1-8 (2014). The sepharose conjugated antibody-protein complex was precipitated via centrifugation and the flow-through was subjected to a second round of immunoprecipitation with a rabbit polyclonal anti-Sestrin2 antibody (Protein Tech, #10795-1-AP) to determine that total Sestrin2 protein levels between samples were equal. SDS-PAGE was performed with the immunoprecipitation samples followed by western-blot with the mouse monoclonal anti-Sestrin2 antibody from SIGMA (cat #WH0083667M3). […] This version of the assay also measured increased instability of Sestrin2 induced by incubation with compounds.

For the molecule `CNC1(c2ccccc2Cl)CCCCC1=O` (centres unmarked) [Ketamine, reference compound], the “animals that developed mild emesis” value in data set [1] (half of the animals (6 out of the 12 dosed)) is given as 6 animals. For the same molecule, in data set [1] (twenty-four hours after acute administration), the “HTT, number of threat postures” value is on record as “induces an anxiolytic/antidepressant-like profile”. The NSFT entry in the data set on Male Sprague Dawley rats was “significant effects”.
In the case of `CC(C)C[C@H](N)C(=O)O` [leucine], the “decrease in affinity of the CST antibody upon ligand binding” value in data set [2] is “not observed”. Moreover, on Sestrin2, the “decrease in intensity of the Sestrin2 band (immunoprecipitated with CST anti-Sestrin2 antibody)” value is on record as at least 50%.

These data come from patent publication US20210228523A1, “MODULATORS OF SESTRIN-GATOR2 INTERACTION AND USES THEREOF” (Navitor Pharmaceuticals, Inc., priority 2017, published 2021).
